For one compound, solubility results are on record in US20080306230A1, “Composition and Associated Method” (GENERAL ELECTRIC COMPANY, priority 2007, published 2008).

The series in a line: Solubility of the product as observed. It counts as physicochemical. To be noted: in words; water or methanol. The method, then: 5-norbornene-2-methanol (CAS 95-12-5, 1 gram) and sodium hydride (NaH, 60% dispersion in mineral oil, 0.6 grams) are dissolved in 50 milliliters of anhydrous THF. The mixture is refluxed overnight at 80 degrees C. After refluxing, 1,3-propane sultone (CAS 1120-71-4, 0.98 grams) in 20 milliliters of THF is added to the mixture in 10 minutes. After 5 hours, the solvent is removed by rotary evaporation and the reaction product is purified by column chromatography using silica and ethyl acetate/methanol (4:1) as eluent. […] The product yield is about 60 weight percent.
A ruthenium metal complex 1,3-bis(2,4,6-trimethylphenyl)-2-imidazolidinylidene)dichloro(phenylmethylene)(tricyclohexylphosphine)ruthenium (CAS No. 246047-72-3, 5 milligrams) is charged in a HPLC flask and the flask is degassed and purged with argon three times. Methylene chloride (CH2Cl2, 50 microliters) is injected into the flask using a syringe. The metal complex solution is cooled at −78 degrees Celsius in a dry ice and acetone bath. Norbornene sulfonate (10 milligrams, Sample 1 from Example 1) is charged into a second flask and degassed and the flask is backfilled with argon three times. Degassed methanol (500 microliters) is added to norbornene sulfonate using a syringe. The resulting mixture is also cooled at −78 degrees Celsius. […]

On to `O=S(=O)([O-])C1CC2C=CC1C2.[Na+]` (stereo not shown) [Sample 1, norbornene-sodium sulfonate], for which the solubility entry is given as “soluble in water or methanol”.
